Data: article PMC10178204, “Peptaibol Analogs Show Potent Antibacterial Activity against Multidrug Resistant Opportunistic Pathogens” (International Journal of Molecular Sciences, 2023)
≈ marks a conversion by molar mass, not a printed value. Non-standard residues stand in square brackets, D forms with d. Residues, ends and D or L forms follow the SMILES beside them. *: point of attachment. Octanoyl = CCCCCCCC(=O)*; Aib = CC(C)(N)C(=O)O

Key:
[1] = test system: Bacillus subtilis ATCC 6633; conditions: for MBC Bsu: ATCC 6633, 18 h; for MIC Bsu: MHB, 5 × 10^5 CFU/mL, 18 h, 35 °C, triplicate
From the text: (§1) The antibacterial activity of the peptides was initially assessed on a panel of representative Gram-positive and Gram-negative organisms of high clinical relevance and commonly responsible for bacterial infections in both animals and humans. Bacillus subtilis ATCC 6633 (Bsu) was also included as a rod-shaped model Gram-positive organism. This first panel comprised: Enterococcus faecalis ATCC 29212 (Efa); Streptococcus pyogenes ATCC 12344 (Spy); and Staphylococcus aureus ATCC 25923 (Sau); Gram-negative: Escherichia coli CCUGT (Eco), Klebsiella pneumoniae ATCC 13833 (Kpn), Acinetobacter baumannii ATCC 17978 (Aba), and Pseudomonas aeruginosa ATCC 27853 (Pae) (Table 2). Both the minimum inhibitory concentration (MIC, Table 2) and the minimum bactericidal concentration (MBC, Table S1, Supporting Material) were determined.
(§2) The minimum inhibitory concentration (MIC) and the minimum bactericidal concentration (MBC) of the compounds were determined in triplicate using Mueller–Hinton broth (MHB). […] Therefore, we decided to dissolve all peptides in DMSO to a final concentration of 25 mg/mL, for consistency. The bacteria inoculum was 5 × 10^5 CFU/mL, as recommended by CLSI (Document M07-A10, 2015). […] Reference-type strains, including representatives of both Gram-positive bacteria (Bacillus subtilis ATCC 6633, Enterococcus faecalis ATCC 29212, Staphylococcus aureus ATCC 25923, the methicillin-resistant Staphylococcus aureus ATCC 43300 (MRSA), Streptococcus pyogenes ATCC 12344) and Gram-negative bacteria (Escherichia coli CCUGT, Klebsiella pneumoniae ATCC 13833, Pseudomonas aeruginosa ATCC 27853, and Acinetobacter baumannii ATCC 17978), were acquired from ATCC or CCUG culture collections. Other antibiotic-resistant clinical isolates were present in our collection at the University Teaching Hospital (Azienda Ospedaliero-Universitaria Senese ‘Santa Maria alle Scotte’) in Siena, Tuscany, Italy. Specifically, MDR carbapenem-hydrolyzing class D β-lactamase-producing Acinetobacter baumannii and metallo-β-lactamase-producing Pseudomonas aeruginosa were used in this study (Table 4).

Escherichia coli CCUGT = conditions: MHB, 5 × 10^5 CFU/mL, 18 h, 35 °C, triplicate
From the text: as §1, §2

[2] = test system: Staphylococcus aureus ATCC 25923; conditions: MHB, 5 × 10^5 CFU/mL, 18 h, 35 °C, triplicate
From the text: as §1, §2

[3] = test system: Acinetobacter baumannii ATCC 17978; conditions: MHB, 5 × 10^5 CFU/mL, 18 h, 35 °C, triplicate
From the text: as §1, §2

[4] = test system: Enterococcus faecalis ATCC 29212; conditions: MHB, 5 × 10^5 CFU/mL, 18 h, 35 °C, triplicate
From the text: as §1, §2

[5] = test system: Pseudomonas aeruginosa ATCC 27853; conditions: MHB, 5 × 10^5 CFU/mL, 18 h, 35 °C, triplicate
From the text: as §1, §2

[6] = test system: Klebsiella pneumoniae ATCC 13833; conditions: MHB, 5 × 10^5 CFU/mL, 18 h, 35 °C, triplicate
From the text: as §1, §2

[7] = test system: Streptococcus pyogenes ATCC 12344; conditions: MHB, 5 × 10^5 CFU/mL, 18 h, 35 °C, triplicate
From the text: as §1, §2

[8] = test system: blood agar plate (Columbia CNA Agar); assay: Hemolysis on blood agar plate; conditions: 50 μg spotted on blood agar, 35 ± 2 °C, 24 h, average of triplicate
Method: Hemolysis zones were visually determined and measured. […] For two additional peptides (6 and 15), only a small hemolysis zone (diameter 4–5 mm) was visible, as compared to that of the positive control (Triton X-100, 13 mm).
Briefly, 2 μL of each peptide solution in DMSO (25 mg/mL), corresponding to 50 μg, was spotted on the surface of a blood agar plate (Columbia CNA Agar, Becton Dickinson Italia S.p.A., Florence, Italy). The plate was then incubated at 35 ± 2 °C for 24 h and visually inspected for the presence of hemolysis zones (see Figure S13, Supplementary Material). The experiment was performed in triplicate. Table 2 reports the average value of the diameter of hemolysis zones measured in each individual experiment. Triton X-100 was used as a positive control (diameter of the hemolysis zone: 13 mm), while DMSO was used as a negative control.
Figure S13. Implementation of the hemolysis test as described in Bechlars et al.. After spotting
2 µL (50 µg) of each compound at a random location on the blood agar plate and incubation at 35 ±
2 °C for 24 h, the plates were manually inspected for the presence of hemolysis zones. Triton X-100
and DMSO were used as the positive and negative controls, respectively. Results were interpreted
(1 picture or pasted object on this page, not shown here)

| Compound | MBC Bsu [1] [µg/mL] | MIC Bsu [1] [µg/mL] | MIC Eco (Escherichia coli CCUGT) [µg/mL] | MIC Sau [2] [µg/mL] | MIC Aba [3] [µg/mL] | MIC Efa [4] [µg/mL] | MIC Pae [5] [µg/mL] | MIC Kpn [6] [µg/mL] | MIC Spy [7] [µg/mL] | Hemolysis (d, diameter of hemolysis zone) [8] [mm] |
| --- | --- | --- | --- | --- | --- | --- | --- | --- | --- | --- |
| CCCCCCCC(=O)NC(C)(C)C(=O)N[C@@H](CCCCN)C(=O)N[C@@H](CCCCN)C(=O)N[C@@H](CC(C)C)C(=O)N[C@@H](CC(C)C)C(N)=O [Peptide 13, 1-Oct-Aib-Lys-Lys-Leu-Leu-NH2] (Octanoyl-[Aib]KKLL-NH2) | 64 (≈ 90 µM) | 32 (≈ 45 µM) | > 128 | > 128 | > 128 | > 128 | > 128 | > 128 | > 128 | – |
| CCCCCCCC(=O)N[C@@H](CC(C)C)C(=O)NC(C)(C)C(=O)N[C@@H](CCCCN)C(=O)N[C@H](C(N)=O)[C@@H](C)CC [Peptide 14, 1-Oct-Leu-Aib-Lys-Ile-NH2] (Octanoyl-L[Aib]KI-NH2) | – | > 128 | > 128 | > 128 | > 128 | > 128 | > 128 | > 128 | > 128 | – |
| CCCCCCCC(=O)N[C@@H](CC(C)C)C(=O)NC(C)(C)C(=O)N[C@@H](CCCCN)C(=O)N[C@@H](CC(C)C)C(N)=O [Peptide 16, 1-Oct-Leu-Aib-Lys-Leu-NH2] (Octanoyl-L[Aib]KL-NH2) | – | > 128 | > 128 | > 128 | > 128 | > 128 | > 128 | > 128 | > 128 | – |
| CCCCCCCC(=O)N[C@@H](CCCCN)C(=O)N[C@@H](CC(C)C)C(=O)NC(C)(C)C(=O)N[C@@H](CC(C)C)C(N)=O [Peptide 17, 1-Oct-Lys-Leu-Aib-Leu-NH2] (Octanoyl-KL[Aib]L-NH2) | – | > 128 | > 128 | > 128 | > 128 | > 128 | > 128 | > 128 | > 128 | – |
| CCCCCCCC(=O)N[C@@H](CC(C)C)C(=O)N[C@@H](CCCCN)C(=O)NC(C)(C)C(=O)N[C@@H](CC(C)C)C(N)=O [Peptide 18, 1-Oct-Leu-Lys-Aib-Leu-NH2] (Octanoyl-LK[Aib]L-NH2) | > 128 | 128 (≈ 220 µM) | > 128 | > 128 | > 128 | > 128 | > 128 | > 128 | 128 (≈ 220 µM) | – |
| Triton X-100 [reference compound] | – | – | – | – | – | – | – | – | – | 13 |
